Columns and labels:
Assay in all cases: MTT assay, cytotoxicity by cellular proliferation
Type in all cases: cell-based
SiHa = details: Homo sapiens, cytotoxicity in the light
HCT 116 = details: Homo sapiens, cytotoxicity in the light
HaCaT = details: Homo sapiens, cytotoxicity in the light
[1] = test system: oral cancer cells (SCC 131); details: Homo sapiens, SCC131, cytotoxicity in the light
Protocol: (§1) 3, (4,5-Dimethylthiazol-2-yl)-2,5-diphenyltetrazolium bromide (MTT) assay is a standard colorimetric assay for measuring cellular proliferation (cell growth). It was used to determine cytotoxicity of the porphyrin derivatives of the general formulae 1. Human cervical oral cancer cells (SCCl31 cells) (5×10^3 cells well^−1) were added to wells of two 96 well microtiter plate. One for dark cytotoxicity and another for light cytotoxicity with 150 μL DMEM (Dulbecco's Modified Eagle Medium) with 10% serum and incubated for 24 h. Then added 3.125 to 25 μM of porphyrin derivatives of the general formulae 1 in serial dilution (stock 100 mM diluted using DPBS (Dulbecco's Phosphate Buffered Saline) for test, 0.025% DMSO (dimethyl sulphoxide) for control and incubated for 3 h and irradiated in one plate using sodium vapor lamp (70 w for 15 min) while the other plate was kept in dark. After photoirradiation, DPBS was aspirated and 150 μL DMEM with 10% serum was added to each well and incubated is for 48 h. After 48 h of incubation, removed the plates from the incubator and added 10 µL of MIT (5 mg/ml stock) to each well of the plate. […] Read the absorbance at 570 nm. Percentage growth inhibition was calculated as % Growth inhibition=(control-test)/control)×100 […]

Mia PaCa = details: Homo sapiens, MIA PaCa-2, cytotoxicity in the light
[2] = test system: Breast cancer cells (MDA MB 231); details: Homo sapiens, cytotoxicity in the light
Protocol: [Worded in the source for another cell line; this cell line is reported under the same test.] as §1

MCF 7 = details: Homo sapiens, MCF7, cytotoxicity in the light
HeLa = details: Homo sapiens, cytotoxicity in the light
SCC 172 = details: SCC172, cytotoxicity in the light

Oc1cccc(-c2c3nc(c(-c4cccc(O)c4)c4ccc([nH]4)c(-c4cccc(O)c4)c4nc(c(-c5cccc(O)c5)c5ccc2[nH]5)CC4)C=C3)c1 [FOSCAN, 5, 10, 15, 20-tetrakis (meta-hydroxyphenyl)-chlorin, reference compound]
IC50 (SiHa): 22.5 µM
IC50 (HCT 116): 9 µM
IC50 (HaCaT): 8 µM
IC50 [1]: 16 µM
IC50 (Mia PaCa): 11 µM
IC50 [2]: 13.5 µM
IC50 (MCF 7): 13 µM
IC50 (HeLa): 22 µM
IC50 (SCC 172): 12.5 µM

From patent US9040687B2, “Process for the preparaton of novel porphyrin derivatives and their use as PDT agents and fluorescence probes” (COUNCIL OF SCIENTIFIC AND IDUSTRIAL RESEARCH, priority 2010, dated 2015)
